Each structure is given as a SMILES string. Activity calls are given as the source filed them. The calls are words filed in the database; no cut-off is given here.

The target of the test is TCF4/beta-catenin (Homo sapiens) (UniProt P35222+Q9NQB0). The test is described as follows: Inhibition of TCF-4 ( 1 to 56 residues) (unknown origin) binding to beta-catenin/armadillo (unknown origin) at 50 uM by ITC assay. The class given is protein-complex assay.
Turning to `Cc1ccc(/C(=N\NC(=O)c2ccccc2Oc2ccccc2)c2ccccn2)o1`, the inhibition result was “Active”. With `COc1cccc2c1CCc1sc(N(CCOC(C)CCc3ccccc3)C(C)=O)nc1-2` (centres undefined), the inhibition result was “Active”. In the case of `Cc1cc(CNC(=O)/C=C2\C(=O)N(c3ccncc3)c3ccccc32)on1`, the inhibition result is “Active”. With `Cc1ccc(/C=N/n2c(=O)n(-c3ccncc3)c(=O)c3ccccc32)o1`, the inhibition entry was “Active”. In the case of `Cc1nnc(-c2sc3nc(-c4ccc(Cl)cc4)nn3c2C)o1`, the inhibition entry is “Active”.

For `Cc1cc(/C(=C\c2ccccc2)c2ccc(OCCN3CCCC3)cc2)on1`, the inhibition entry was “Active”.

With `Cc1ccc(COc2ccccc2C=C2CCN(S(=O)(=O)c3ccncc3)CC2)o1`, the inhibition result was “Active”. Turning to `Cc1ccc(CCc2ccc3[nH]c(-c4ccco4)cc3c2)o1`, the inhibition result was “Active”. The value for `O=c1oc(-c2ccccc2)cc(O)c1/C=C/c1nnc(Br)o1` was “Active”; that for `Cc1ccc(/C=N/N=C2\C(=O)N(c3ccncc3)c3ccccc32)o1` was “Active”.

`O=C(c1ccncc1)N1CCC(=Cc2ccccc2OCc2ccc(Br)o2)CC1`: the inhibition entry is “Active”.

Consider `Nc1n[nH]c(CC2CN(c3ccc(N4CCOCC4)c(F)c3)C(=O)O2)n1` (centres undefined), for which the inhibition result is “Active”. With `Cc1ccc(Nc2cccc(-c3ccccc3Oc3ccccc3)c2)o1`, the inhibition entry is “Active”.

`Cc1ccc(C(=O)N2CCN(C(c3ccccc3)c3ccccc3)CC2)s1`: the inhibition result is “Active”. In the case of `O=C(c1ccc(Br)o1)N1CCN(C(c2ccccc2)c2ccccc2)CC1`, the inhibition entry was “Active”. Turning to `Cc1ccc(CCc2ccc3[nH]c(-c4cccs4)cc3c2)o1`, the inhibition entry was “Active”.

Consider `Cc1ccc(/C=C/c2ccc3[nH]c(-c4ccco4)cc3c2)o1`, for which the inhibition entry is “Active”.

As to `Cc1cc(NC(=O)c2c(O)cc(Oc3ccccc3)oc2=O)on1`, the inhibition entry is “Active”. For the compound `Cc1ccc(/C=N/NC(=O)c2ccccc2Oc2ccccc2)o1`, the inhibition result was “Active”. For the compound `Cc1cc(-c2onc(C)c2COC(=O)Nc2ccccc2)no1`, the inhibition entry is “Active”. `Cc1cc(NC(=O)c2ccc(Oc3ccccc3)cc2)on1`: the inhibition entry was “Active”.

As to `Nc1n[nH]c(CC2CN(c3ccc(N4CCNCC4)c(Cl)c3)C(=O)N2)n1` (centres undefined), the inhibition result was “Active”. Take `O=S(=O)(c1ccc(OCc2cnc(Cl)s2)cc1)N1CCOCC1`: the inhibition entry was “Active”. As for `O=C(CCNS(=O)(=O)c1ccccc1)NNS(=O)(=O)Cc1ccc(Cl)s1`, the inhibition entry was “Active”. Regarding `CS(=O)(=O)N(CCOCCc1ccccc1)c1nc2c([nH]1)CCc1ccccc1-2`, the inhibition entry is “Active”. `Cc1ccc(/C(=N\NC(=O)c2ccccc2Nc2ccccc2)c2ccccc2)o1`: the inhibition result is “Active”. Turning to `C/C(=N\NC(=O)COc1ccccc1)c1ccc(C)s1`, the inhibition entry was “Active”. With `Cc1cc(NC(=O)NC(=O)c2nnc(-c3ccccc3)o2)no1`, the inhibition entry was “Active”.

As for `O=C(Nc1nnc(Br)o1)c1c(O)cc(-c2ccccc2)oc1=O`, the inhibition result is “Active”.

As to `CC(=O)N(CCCC(C)c1ccccc1)c1nc2c(s1)CCc1ccccc1-2` (centres undefined), the inhibition result is “Active”. With `Cc1ccc(CNC(=O)/C=C2\C(=O)N(c3ccncc3)c3ccccc32)o1`, the inhibition entry was “Active”. `C/C(=N\NC(=O)OCc1ccccc1)c1cc(C)cs1`: the inhibition result is “Active”. Turning to `Cc1ccc(-c2ccc3ccc(Oc4ccncc4)cc3c2)o1`, the inhibition result was “Active”. Consider `Oc1nnc(CCCc2ccc(Oc3ccccc3)cc2)o1`, for which the inhibition entry is “Active”.

Regarding `Cc1ccc(NC(=O)c2c(O)cc(-c3ccccc3)oc2=O)o1`, the inhibition result is “Active”. Turning to `Cc1ccc(/C(=N\NC(=O)c2ccccc2Oc2ccccc2)c2ccccc2)s1`, the inhibition entry is “Active”. In the case of `CS(=O)(=O)N(CCCCOc1ccccc1)c1nc2c(s1)CCc1ccccc1-2`, the inhibition result is “Active”. For `Cc1ccc(/C=N/Nc2cc(C(=O)NCCc3ccccc3)cc3c2CCc2ccncc2-3)o1`, the inhibition entry was “Active”. The value for `Cc1ccc(/C=N/c2cccc3c(-c4ccncc4)ccnc23)o1` was “Active”.

Values taken from ChEMBL document CHEMBL3881522, “Interaction inhibitors of TCF-4 with Beta-catenin” (2004).
